Patent publication US20130289099A1, “ABCG1 GENE AS A MARKER AND A TARGET GENE FOR TREATING OBESITY” (UNIVERSITE PIERRE ET MARIE CURIE (PARIS 6), priority 2010, published 2013)
{P} = phosphate

Key:
3T3-L1 preadipocytes = test: Cellular triglyceride content during maturation of 3T3-L1 preadipocytes into adipocytes; type: cell-based, mouse; conditions: silencing in preadipocytes at D0; after 4 days of differentiation, p<0.05
Description: (§1) 3T3-L1 adipocytes. The 3T3-L1 preadipocytes (ATCC) were maintained in Dulbecco's modified Eagle medium (DMEM) supplemented with 10% calf serum and 2 mM glutamine. Differentiation of confluent preadipocytes was initiated with 250 nM insulin, 1250 nM dexamethasone and 250 μM 3-isobutyl-methyl-1-xanthine) in DMEM (4.5 g/L glucose) supplemented with 10% FBS. After 3 days, the culture medium was switched to DMEM (4.5 g/L glucose) supplemented with 10% FBS and 100 nM Insulin for 2 days. Then, 3T3-adipocytes were allowed to mature in DMEM (4.5 g/L glucose) containing 10% FBS, which was replaced every other day for 15 days.
(§2) Quantification of total cellular triglyceride and cholesterol mass was performed as previously described (Milosavljevic et al., 2003).
(§3) Ten-day differentiated HMDM were grown in 24-well plates and transfected with 50 nM control siRNA (Dharmacon) or siRNA targeting human ABCG1 using lipofectamine RNAiMax (Invitrogen) according to the manufacturer's instructions. Transfection of 3T3-L1 preadipocytes and mature adipocytes with siRNA was achieved using the Nucleofector® technology (Lonza) according to the manufacturer's protocol. For each experiment, 2×10^6 cells and 100 pmol siRNA were diluted in 100 μl of V solution and processed with A-033 program.

LPL [1] = test: Secreted LPL activity in culture media of 3T3-L1 adipocytes; type: cell-based, mouse; conditions: ABCG1 KD 3T3-L1 adipocytes, p<0.05
Description: as §1
(§4) Cell culture medium from either macrophage or adipocyte cultures was replaced by a serum-free medium containing 10 U/mL heparin (Choay) and the cells were subsequently incubated for 24 h at 37° C. Culture medium was then collected and stored at −80° C. until determination of LPL activity and cells were lysed overnight in 0.2 N NaOH. Cell protein was quantified using the BCA assay (Pierce). LPL activity was determined using a 50-μl aliquot of culture medium ( 1/10 of total volume), or plasma when indicated, according to the procedure previously described (Stengel et al., 1998). Results are expressed as units of LPL activity (1 U of LPL activity correspond to 1 nmol free fatty acid liberated/min/mg cell protein). […]

ABCG1 = ABCG1 knockdown efficiency (mRNA) in 3T3-L1 adipocytes; type: cell-based, mouse; conditions: mature 3T3-L1 adipocytes, p<0.0005
Description: as §1, with “15 days. […]” for “15 days.”
(§5) Twenty-four hours following transfection with siRNA, Control and ABCG1 KD cells were washed twice with cold PBS and total RNA was extracted using a NucleoSpin RNA II kit (Macherey-Nagel) according to the manufacturer's instructions. Reverse transcription of RNA and real time quantitative PCR using a LightCycler LC480 (Roche) were performed as previously described (Larrede et al., 2009). Expression data were based on the crossing points calculated with the software for LightCycler data analysis and corrected for PCR efficiencies of the target and the reference gene. When indicated, data were expressed as a fold change in mRNA expression relative to control values.

[2] = tested on: human monocyte-derived macrophages (HMDM); test: VLDL-induced cellular triglyceride and cholesterol accumulation in HMDM; type: cell-based; conditions: 50 μg/mL VLDL, 24 h
Description: as §2, §3

[3] = tested on: SDC1, SDC2, VLDL-r, LRP, apoE, LDL-r; test: Relative mRNA levels of proteoglycan core proteins, lipoprotein receptors and apoE in HMDM; type: cell-based, human
Description: as §3, §5

LPL [4] = test: Confocal microscopy of LPL at the cell surface of HMDM; type: cell-based, human; conditions: ABCG1 KD HMDM vs control
Description: Cells were blocked for 60 minutes with 3% BSA in PBS and then incubated with an anti-hLPL antibody (Abcam; 1:300) overnight at 4° C. After washing, a biotinylated goat anti-mouse IgG secondary antibody (1:1000; BD Pharmingen) was added, followed by the addition of streptavidin-horseradish peroxidase. The signal was enhanced using the tyramide signal amplification (TSA) kit (PerkinElmer) according to the manufacturer's protocol; cells were counterstained for nuclei with DAPI (Invitrogen). Confocal microscopy was performed using a Right confocal microscope Olympus FV-1000 with a 60× objective.

human ABCG1 = test: siRNA silencing of ABCG1 in HMDM, Western blot of total ABCG1 protein; type: cell-based; conditions: HMDM transfected with 50 nM siRNA vs control siRNA
Description: (§6) Human Macrophages. Human THP-1 monocytic cells (ATCC) and a THP-1 clone stably transfected with an shRNA targeting human ABCG1, in which ABCG1 expression is stably knocked down (ABCG1 SKD), were cultured and differentiated into macrophage-like cells as previously described (Larrede et al., 2009). Circulating human monocytes were isolated from the blood of individual healthy normolipidemic donors (Etablissement Français du Sang, EFS) on Ficoll gradients (Ficoll-Paque PLUS, GE Healthcare) and subsequently differentiated into human macrophages (HMDM) following the procedure previously reported (Larrede et al., 2009).
Silencing of ABCG1 expression was performed by application of siRNA oligonucleotides (Dharmacon) targeted to the cDNA sequence of either the human ABCG1 gene (Genebank #AY048757):
Ten-day differentiated HMDM were grown in 24-well plates and transfected with 50 nM control siRNA (Dharmacon) or siRNA targeting human ABCG1 using lipofectamine RNAiMax (Invitrogen) according to the manufacturer's instructions. […]
Cell proteins were extracted using 200 μL M-PER reagent (Pierce) containing protease inhibitors and were subsequently separated on a 4-12% Bis-Tris gel (Invitrogen). […] ABCG1 was detected using rabbit anti-hABCG1 (NB400-132; Novus) at 1:500 and goat anti-rabbit/HRP (Dako) at 1:15000.

LPL [5] = test: Flow cytometry of cell surface LPL in THP-1 macrophages; type: cell-based, human; conditions: ABCG1 KD THP-1 macrophages, p<0.05
Description: as §6
Human THP-1 macrophages were cultured in 12-well plates (2.106 cells/well) and incubated in serum-free media in the presence or in the absence of 10 U/mL heparin (Choay) for 24 h at 37° C. following siRNA transfection. Cells were then washed and harvested in cold PBS. After brief centrifugation (2000 rpm, […]) at 4° C., cells were pre-incubated with 100 μl of human Fc Blocker (BD Pharmingen; 1:400 in PBS/BSA 1%) for 10 min at 4° C., and incubated with a monoclonal mouse antibody directed against human LPL (abcam; 1:100) for a further 15 min at 4° C. […] Cells were analyzed on an FC 500 flow cytometer (Beckman Coulter) using Epics XL32 software.

LPL mRNA = LPL mRNA levels by real-time quantitative PCR in HMDM; type: cell-based, human; conditions: ABCG1 KD HMDM, p<0.05
Description: as §3, §5

LPL [6] = test: Secreted LPL activity in culture media of HMDM after heparin; type: cell-based, human; conditions: ABCG1 KD HMDM, after heparin treatment, p=0.02
Description: as §6, §4

Question: With “5′-GCGAAGCUGUACCUGGAUU-UU / 5′-P-AAUCCAGGUACAGCUUCGC-UU-3′ (sense GCGAAGCUGUACCUGGAUUUU; antisense AAUCCAGGUACAGCUUCGCUU; siRNA; sense: RNA, backbone not given here; antisense: RNA, 5' {P}, backbone not given here) [siRNA targeting mouse Abcg1]” as the molecule, how does the “intracellular TG accumulation during adipocyte maturation, change vs control cells” value (3T3-L1 preadipocytes) read?
Answer: The value was −22%.

Question: What about the “LPL activity in media, change vs control cells” value (LPL [1]) of the same molecule?
Answer: The value was −81%.

Question: What about the “inhibition of ABCG1 (mRNA), change vs control” value (ABCG1) of the same molecule?
Answer: Its value is −77%.

Question: CCCCCCCCCCC[C@@H](C[C@@H]1OC(=O)[C@H]1CCCCCC)OC(=O)[C@H](CC(C)C)NC=O [THL, Tetrahydrolipstatin, reference compound] was tested. Which “TC accumulation induced by VLDL, change” value ([2]; control HMDM, 10 μM THL) did it give?
Answer: Its value is −75%.

Question: What about the “TG accumulation induced by VLDL, change” value ([2]; control HMDM, 10 μM THL) of the same molecule?
Answer: The value was −43%.

Question: How did the “relative mRNA levels of SDC1, SDC2, VLDL-r, LRP and apoE” value ([3]; ABCG1 KD human macrophages vs control) turn out when “5′-UCAUUGGCCUGCUGUACUU-UU-3 / 5′-P-AAGUACAGCAGGCCAAUGA-UU-3′ (sense UCAUUGGCCUGCUGUACUUUU; antisense AAGUACAGCAGGCCAAUGAUU; siRNA; sense: RNA, backbone not given here; antisense: RNA, 5' {P}, backbone not given here) [siRNA specific for the human ABCG1 gene]” was run?
Answer: Its value is “not altered”.

Question: And the “LDL-receptor (LDL-r) expression, induction vs control cells” value ([3]; ABCG1 KD macrophages, p<0.01)?
Answer: Its value is 2 fold.

Question: And the “abundance of LPL detected at the cell surface after heparin treatment” value (LPL [4]; 10 U/mL heparin)?
Answer: Its value is “still remained higher than that in control HMDM”.

Question: What about the “LPL expression at the cell surface (confocal microscopy)” value (LPL [4]; without heparin) of the same molecule?
Answer: The value was “much more pronounced than in control cells”.

Question: What about the “ABCG1 expression (total ABCG1 protein, Western blot)” value (human ABCG1) of the same molecule?
Answer: Its value is “almost complete abolition”.

Question: What about the “expression of LPL at the cell surface (flow cytometry), change vs control cells” value (LPL [5]) of the same molecule?
Answer: The value was “+48%”.

Question: What about the “VLDL-induced accumulation of cholesterol” value ([2]; ABCG1 KD HMDM) of the same molecule?
Answer: Its value is “completely abolished”.

Question: And the “VLDL-induced accumulation of TG, change vs control cells” value ([2]; ABCG1 KD HMDM, p<0.01)?
Answer: The value was −38%.

Question: What about the “LPL expression (mRNA), change vs control HMDM” value (LPL mRNA) of the same molecule?
Answer: The value was “+28%”.

Question: And the “secreted LPL activity, change vs control HMDM” value (LPL [6])?
Answer: Its value is −52%.
